Measured values: patent EP4813993A1, “COMPOUND, PREPARATION METHOD THEREFOR, AND USE THEREOF” (Sichuan Kelun Pharmaceutical Research Institute Co., Ltd., priority 2023, dated 2025)

Target: T1, Nav1.8 channels (Homo sapiens, UniProt Q9Y5Y9)
T1 construct: expressed in transfected cells
Assay: Manual patch-clamp, current of stably overexpressed Nav1.8 channels (resting state voltage program)
Type: cell-based
Conditions: not given
Method: Experimental Example 1: Effects of test substances on current of stably overexpressed Nav1.8 channels monitored via manual patch-clamp technique
Test compounds were dissolved in dimethyl sulfoxide (DMSO).
The extracellular fluid was as follows: 140 mM NaCl, 3.5 mM KCl, 1 mM MgCl2•6H2O, 2 mM CaCl2•2H2O, 10 mM D-Glucose, 10 mM HEPES, 1.25 mM NaH2PO4•2H2O; the pH was adjusted to 7.4 with NaOH. The intracellular fluid was as follows: 50 mM CsCl, 10 mM NaCl, 10 mM HEPES, 60 mM CsF, 20 mM EGTA; the pH was adjusted to 7.2 with CsOH.
2. Experimental materials and instruments
• 1) patch-clamp amplifier: EPC 10 (HEKA) • 2) micromanipulator: MP225 (Sutter Instrument) • 3) inverted microscope: MF53 (Mshot) • 4) micropipette puller: P97 (Sutter Instrument) • 5) capillary glass tube: BF150-86-10 (Sutter Instrument)
3. Experimental procedures
• 1) After the compounds were prepared into solutions with specified concentrations, the solutions were sequentially added to the pipeline of the drug delivery system and labeled. • 2) The cell climbing coverslip was placed in the recording chamber, the appropriate cells were selected under the inverted microscope, and the position of the drug delivery tip was adjusted. • 3) A capillary glass tube was pulled into a suitable recording electrode using the micropipette puller, and then the electrode filled with the intracellular fluid was mounted in the microelectrode holder. The micromanipulator was adjusted under the inverted microscope to allow the recording electrode to contact the cell, and negative pressure was applied to the electrode to form a high-resistance seal. At this time, fast capacitance compensation was performed, and then the application of negative pressure was continued to break the cell membrane, forming a whole-cell recording mode. Finally, slow capacitance compensation was performed, and related parameters were recorded. • 4) After the cell current stabilized, administration was started. Each concentration of the drug was applied for five minutes or until the current stabilized before proceeding to monitor the next concentration. The drug solutions were administered via gravity-fed delivery, flowing through the recording chamber to act on the cells in an ascending order of concentration (from low to high). A peristaltic pump was employed for solution exchange in the recording process.
4 Test voltage program (resting state) and results
After the formation of the whole-cell seal, the cell voltage was clamped at -120 mV, followed by depolarization to 0 mV using a square-wave pulse with a duration of 50 ms to elicit Nav1.8 currents. This procedure was repeated every 20 s to monitor the maximum current induced by the square wave. After the current stabilized, the test compounds were administered. Once the response stabilized, the intensity of the current block was calculated.

T1 sequence (Q9Y5Y9 whole entry): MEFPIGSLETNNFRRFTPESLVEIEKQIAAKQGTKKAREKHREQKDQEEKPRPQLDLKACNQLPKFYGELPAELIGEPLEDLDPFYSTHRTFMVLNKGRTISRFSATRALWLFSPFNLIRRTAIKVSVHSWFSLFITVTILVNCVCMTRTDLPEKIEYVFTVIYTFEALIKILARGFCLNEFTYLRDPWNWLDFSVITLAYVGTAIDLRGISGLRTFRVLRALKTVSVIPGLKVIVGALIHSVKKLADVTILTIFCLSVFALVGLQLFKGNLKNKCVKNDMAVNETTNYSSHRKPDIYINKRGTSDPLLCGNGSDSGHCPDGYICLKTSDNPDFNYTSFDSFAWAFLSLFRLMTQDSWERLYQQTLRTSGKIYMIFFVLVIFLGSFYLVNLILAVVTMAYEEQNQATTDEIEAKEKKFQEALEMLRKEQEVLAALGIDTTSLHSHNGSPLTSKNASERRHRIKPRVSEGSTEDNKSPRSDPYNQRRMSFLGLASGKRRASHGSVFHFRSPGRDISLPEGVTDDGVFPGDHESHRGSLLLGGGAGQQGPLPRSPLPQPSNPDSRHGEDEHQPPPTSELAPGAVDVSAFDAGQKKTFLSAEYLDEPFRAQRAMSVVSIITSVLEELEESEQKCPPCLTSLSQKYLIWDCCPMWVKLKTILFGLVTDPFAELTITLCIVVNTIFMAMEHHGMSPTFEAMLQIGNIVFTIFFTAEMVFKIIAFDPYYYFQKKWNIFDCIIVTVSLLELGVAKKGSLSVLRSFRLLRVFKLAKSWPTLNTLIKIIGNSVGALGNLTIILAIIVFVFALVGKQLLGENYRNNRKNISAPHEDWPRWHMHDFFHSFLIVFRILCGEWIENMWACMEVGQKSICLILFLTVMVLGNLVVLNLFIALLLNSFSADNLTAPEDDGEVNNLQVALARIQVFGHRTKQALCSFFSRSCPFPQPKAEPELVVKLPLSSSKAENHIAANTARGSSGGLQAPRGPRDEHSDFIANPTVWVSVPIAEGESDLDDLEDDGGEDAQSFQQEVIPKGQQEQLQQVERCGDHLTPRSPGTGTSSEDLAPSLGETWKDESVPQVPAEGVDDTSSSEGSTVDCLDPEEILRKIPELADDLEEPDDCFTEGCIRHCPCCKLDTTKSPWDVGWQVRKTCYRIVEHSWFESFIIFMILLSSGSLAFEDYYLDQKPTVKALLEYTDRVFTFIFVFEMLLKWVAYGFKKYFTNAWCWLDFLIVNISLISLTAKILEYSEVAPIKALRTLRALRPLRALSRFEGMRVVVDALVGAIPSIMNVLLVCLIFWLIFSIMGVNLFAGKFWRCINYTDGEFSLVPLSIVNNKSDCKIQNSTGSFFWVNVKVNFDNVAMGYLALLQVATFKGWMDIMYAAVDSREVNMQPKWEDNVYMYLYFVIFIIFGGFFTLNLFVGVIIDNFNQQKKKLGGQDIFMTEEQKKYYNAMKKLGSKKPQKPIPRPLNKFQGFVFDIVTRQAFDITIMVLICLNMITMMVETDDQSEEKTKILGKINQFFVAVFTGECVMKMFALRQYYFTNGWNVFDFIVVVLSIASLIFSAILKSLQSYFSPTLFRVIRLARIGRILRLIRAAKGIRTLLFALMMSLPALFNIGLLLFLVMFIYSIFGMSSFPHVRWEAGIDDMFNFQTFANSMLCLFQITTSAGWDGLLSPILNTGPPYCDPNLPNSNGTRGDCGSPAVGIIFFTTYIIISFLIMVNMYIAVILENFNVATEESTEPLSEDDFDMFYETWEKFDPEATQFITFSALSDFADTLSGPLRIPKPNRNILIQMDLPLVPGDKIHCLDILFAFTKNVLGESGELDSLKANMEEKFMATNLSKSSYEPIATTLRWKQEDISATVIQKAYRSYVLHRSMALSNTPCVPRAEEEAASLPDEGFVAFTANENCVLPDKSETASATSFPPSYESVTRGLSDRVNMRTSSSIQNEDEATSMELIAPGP

SMILES	IC50 [pM]
COc1c([C@@H]2C[C@](C)(C(F)(F)F)S[C@H]2C(=O)Nc2cccc(N=[N+]=[N-])c2)ccc(F)c1F [a-29-A, (2R,3S,5R)-N-(3-azidophenyl)-3-(3,4-difluoro-2-methoxyphenyl)-5-methyl-5-(trifluoromethyl)tetrahydrothiophene-2-carboxamide]	5
COc1c(C2CC(C)(C(F)(F)F)SC2C(=O)Nc2ccc(F)c(B(O)O)c2)ccc(F)c1F (stereo not shown) [Compound 19, (5-(3-(3,4-difluoro-2-methoxyphenyl)-5-methyl-5-(trifluoromethyl)tetrahydrothiophene-2-carboxamido)-2-fluorophenyl)boronic acid]	330

Same assay, conditions: concentration of 1 nM, 0.001 µM

SMILES	Inhibition rate (%)
COc1c(C2CC(C)(C(F)(F)F)SC2C(=O)Nc2ccc(F)c(N=S(C)(C)=O)c2)ccc(F)c1F (stereo not shown) [a-22, 3-(3,4-difluoro-2-methoxyphenyl)-N-(3-((dimethyl(oxo)-16-sulfonamido)amino)-4-fluorophenyl)-5-methyl-5-(trifluoromethyl)tetrahydrothiophene-2-carboxamide]	80.7

Same assay, conditions: concentration of 1 nM, read-out: Inhibition rate %

SMILES	inhibition at 0.001 µM [%]
CCS(=O)(=O)Nc1cccc(NC(=O)[C@@H]2S[C@@](C)(C(F)(F)F)C[C@H]2c2ccc(F)c(F)c2OC)c1 [a-44-A, (2R,3S,5R)-3-(3,4-difluoro-2-methoxyphenyl)-N-(3-(ethylsulfonamido)phenyl)-5-methyl-5-(trifluoromethyl)tetrahydrothiophene-2-carboxamide]	49.9
COc1c(C2CC(C)(C(F)(F)F)SC2C(=O)Nc2ccc3nnnn3c2)ccc(F)c1F (stereo not shown) [Compound 202, 3-(3,4-difluoro-2-methoxyphenyl)-5-methyl-N-(tetrazolo[1,5-a]pyridin-6-yl)-5-(trifluoromethyl)tetrahydrothiophene-2-carboxamide]	81
COc1c([C@@H]2C[C@](C)(C(F)(F)F)S[C@H]2C(=O)Nc2cccc(-c3ncon3)c2)ccc(F)c1F [a-42-A, (2R,3S,5R)-N-(3-(1,2,4-oxadiazol-3-yl)phenyl)-3-(3,4-difluoro-2-methoxyphenyl)-5-methyl-5-(trifluoromethyl)tetrahydrothiophene-2-carboxamide]	42
COc1c(C2CC(C)(C(F)(F)F)SC2C(=O)Nc2ccn3nnnc3c2)ccc(F)c1F (stereo not shown) [Compound 203, 3-(3,4-difluoro-2-methoxyphenyl)-5-methyl-N-(tetrazolo[1,5-a]pyridin-7-yl)-5-(trifluoromethyl)tetrahydrothiophene-2-carboxamide]	80.4
C=CC(=O)Nc1cc(NC(=O)[C@@H]2S[C@@](C)(C(F)(F)F)C[C@H]2c2ccc(F)c(F)c2OC)ccn1 [Compound 252-A, (2R,3S,5R)-N-(2-acrylamidopyridin-4-yl)-3-(3,4-difluoro-2-methoxyphenyl)-5-methyl-5-(trifluoromethyl)tetrahydrothiophene-2-carboxamide]	62.7
COc1c([C@@H]2C[C@](C)(C(F)(F)F)S[C@H]2C(=O)Nc2ccc(F)c(CO)c2)ccc(F)c1F [Compound 254-A, (2R,3S,5R)-3-(3,4-difluoro-2-methoxyphenyl)-N-(4-fluoro-3-(hydroxymethyl)phenyl)-5-methyl-5-(trifluoromethyl)tetrahydrothiophene-2-carboxamide]	76.8
COc1c([C@@H]2C[C@](C)(C(F)(F)F)S[C@H]2C(=O)Nc2ccc(F)c(C=O)c2)ccc(F)c1F [a-84-A, (2R,3S,5R)-3-(3,4-difluoro-2-methoxyphenyl)-N-(4-fluoro-3-formylphenyl)-5-methyl-5-(trifluoromethyl)tetrahydrothiophene-2-carboxamide]	69.3
COc1c(C2CC(C)(C(F)(F)F)SC2C(=O)Nc2ccc([S+](C)[O-])nc2)ccc(F)c1F (stereo not shown) [Compound 232, 3-(3,4-difluoro-2-methoxyphenyl)-5-methyl-N-(6-(methylsulfinyl)pyridin-3-yl)-5-(trifluoromethyl)tetrahydrothiophene-2-carboxamide]	78.4
COc1c(C2CC(C)(C(F)(F)F)SC2C(=O)Nc2cccc(S(C)(=N)=O)c2)ccc(F)c1F (stereo not shown) [Compound 225, 3-(3,4-difluoro-2-methoxyphenyl)-5-methyl-N-(3-(S-methylsulfonimidoyl)phenyl)-5-(trifluoromethyl)tetrahydrothiophene-2-carboxamide]	91.2

Same assay, conditions: concentration of 10 nM, read-out: Inhibition rate %

SMILES	inhibition at 0.01 µM [%]
COc1c([C@@H]2C[C@](C)(C(F)(F)F)S[C@H]2C(=O)Nc2ccc3c(c2)B(O)OC3)ccc(F)c1F [Compound 31-A, (2R,3S,5R)-3-(3,4-difluoro-2-methoxyphenyl)-N-(1-hydroxy-1,3-dihydrobenzo[c][1,2]oxaborol-6-yl)-5-methyl-5-(trifluoromethyl)tetrahydrothiophene-2-carboxamide]	84.7
COc1c(C2CC(C)(C)SC2C(=O)Nc2ccnc(C(N)=O)c2)ccc(F)c1F (stereo not shown) [Compound 134, 4-(3-(3,4-difluoro-2-methoxyphenyl)-5,5-dimethyltetrahydrothiophene-2-carboxamido)picolinamide]	76.5
COc1c([C@@H]2C[C@](C)(C(F)(F)F)S[C@H]2C(=O)Nc2cccc(C3N=N3)c2)ccc(F)c1F [a-41-A, (2R,3S,5R)-N-(3-(3H-diazirin-3-yl)phenyl)-3-(3,4-difluoro-2-methoxyphenyl)-5-methyl-5-(trifluoromethyl)tetrahydrothiophene-2-carboxamide]	80.6
COc1c([C@@H]2C[C@](C)(C(F)(F)F)S[C@H]2C(=O)Nc2ccc(=O)n(C)c2)ccc(F)c1F [Compound 178-A, (2R,3S,5R)-3-(3,4-difluoro-2-methoxyphenyl)-5-methyl-N-(1-methyl-6-oxo-1,6-dihydropyridin-3-yl)-5-(trifluoromethyl)tetrahydrothiophene-2-carboxamide]	90.2
[2H][C@@]1(C(=O)Nc2ccnc(C(N)=O)c2)S[C@@](C)(C(F)(F)F)C[C@H]1c1ccc(F)c(F)c1OC [Compound 140-A, 4-((2R,3S,5R)-3-(3,4-difluoro-2-methoxyphenyl)-5-methyl-5-(trifluoromethyl)tetrahydrothiophene-2-carboxamido-2-d)picolinamide]	96.2
[2H][C@@]1(C(=O)Nc2cccc(B(O)O)c2)S[C@@](C)(C(F)(F)F)C[C@H]1c1ccc(F)c(F)c1OC [Compound 10-A]	87.5
COc1c(C2CC(C)(C(F)(F)F)SC2C(=O)Nc2ccc3c(c2)S(=O)(=O)N=CN3)ccc(F)c1F (stereo not shown) [a-28-A, 7-(3-(3,4-difluoro-2-methoxyphenyl)-5-methyl-5-(trifluoromethyl)tetrahydrothiophene-2-carboxamido)-4H-benzo[e][1,2,4]thiadiazine-1,1-dioxide]	80.6
COc1c(C2CC(C)(C(F)(F)F)SC2C(=O)Nc2ccc([S+](C)[O-])nc2)ccc(F)c1F (stereo not shown) [Compound 232, 3-(3,4-difluoro-2-methoxyphenyl)-5-methyl-N-(6-(methylsulfinyl)pyridin-3-yl)-5-(trifluoromethyl)tetrahydrothiophene-2-carboxamide]	96.1
COc1c([C@@H]2C[C@](C)(C(F)(F)F)S[C@H]2C(=O)Nc2cccc(NS(N)(=O)=O)c2)ccc(F)c1F [a-18-A, (2R,3S,5R)-3-(3,4-difluoro-2-methoxyphenyl)-5-methyl-N-(3-(sulfamoylamino)phenyl)-5-(trifluoromethyl)tetrahydrothiophene-2-carboxamide]	86.3
COc1c(C2CC(C)(C(F)(F)F)SC2C(=O)Nc2ccnc(N=S(C)(C)=O)c2)ccc(F)c1F (stereo not shown) [a-10, 3-(3,4-difluoro-2-methoxyphenyl)-N-(2-((dimethyl(oxo)-16-sulfanylidene)amino)pyridin-4-yl)-5-methyl-5-(trifluoromethyl)tetrahydrothiophene-2-carboxamide]	88
COc1c([C@@H]2C[C@](C)(C(F)(F)F)S[C@H]2C(=O)Nc2ccc3c(c2)B(O)OC3=O)ccc(F)c1F [a-6-A, (2R,3S,5R)-3-(3,4-difluoro-2-methoxyphenyl)-N-(1-hydroxy-3-oxo-1,3-dihydrobenzo[c][1,2]oxaborol-6-yl)-5-methyl-5-(trifluoromethyl)tetrahydrothiophene-2-carboxamide]	76.9
COc1c(C2CC(C)(C(F)(F)F)SC2C(=O)Nc2cccc(B(O)O)c2)ccc(F)c1F (stereo not shown) [Compound 9, (3-(3-(3,4-difluoro-2-methoxyphenyl)-5-methyl-5-(trifluoromethyl)tetrahydrothiophene-2-carboxamido)phenyl)boronic acid]	84.9
COc1c(C2CC(C)(C(F)(F)F)SC2C(=O)Nc2ccnc(S(C)(=O)=O)c2)ccc(F)c1F (stereo not shown) [Compound 192, (4-(3-(3,4-difluoro-2-methoxyphenyl)-5-methyl-5-(trifluoromethyl)tetrahydrothiophene-2-carboxamido)-2-methylsulfonyl)pyridine]	96.4
